Activity calls are given as the source filed them. How the calls were made is not given here.
System: CCRIS mutagenicity, Ames/micronucleus/aberration tests
Experiment: CCRIS mutagenicity studies

O=c1c(Cl)c(Cl)cnn1S(=O)(=O)c1ccccc1
mutagenic call (Test System: AMES SALMONELLA TYPHIMURIUM, Strain/Indicator: TA98, Metabolic Activation: NONE, Method: STANDARD PLATE): inactive; negative | mutagenic call (Test System: AMES SALMONELLA TYPHIMURIUM, Strain/Indicator: TA98, Metabolic Activation: RAT, LIVER, S-9, AROCLOR 1254, Method: STANDARD PLATE): inactive; negative | mutagenic call (Test System: AMES SALMONELLA TYPHIMURIUM, Strain/Indicator: TA100, Metabolic Activation: NONE, Method: STANDARD PLATE): inactive; negative | mutagenic call (Test System: AMES SALMONELLA TYPHIMURIUM, Strain/Indicator: TA100, Metabolic Activation: RAT, LIVER, S-9, AROCLOR 1254, Method: STANDARD PLATE): inactive; negative | mutagenic call (Test System: AMES SALMONELLA TYPHIMURIUM, Strain/Indicator: TA1535, Metabolic Activation: NONE, Method: STANDARD PLATE): inactive; negative | mutagenic call (Test System: AMES SALMONELLA TYPHIMURIUM, Strain/Indicator: TA1535, Metabolic Activation: RAT, LIVER, S-9, AROCLOR 1254, Method: STANDARD PLATE): inactive; negative | mutagenic call (Test System: AMES SALMONELLA TYPHIMURIUM, Strain/Indicator: TA1537, Metabolic Activation: NONE, Method: STANDARD PLATE): inactive; negative | mutagenic call (Test System: AMES SALMONELLA TYPHIMURIUM, Strain/Indicator: TA1537, Metabolic Activation: RAT, LIVER, S-9, AROCLOR 1254, Method: STANDARD PLATE): inactive; negative

CCOC(=O)C1OC1(C)c1ccccc1 (configuration not stated)
mutagenic call (End Point: IN VITRO CHROMOSOMAL ABERRATIONS, Test System: CHINESE HAMSTER OVARY CELLS, Metabolic Activation: NONE): active; positive; statistically significant increase, but not dose-related | mutagenic call (End Point: IN VITRO CHROMOSOMAL ABERRATIONS, Test System: CHINESE HAMSTER OVARY CELLS, Metabolic Activation: RAT, LIVER, S-9, AROCLOR 1254): active; positive | mutagenic call (Test System: AMES SALMONELLA TYPHIMURIUM, Strain/Indicator: TA98, Metabolic Activation: HAMSTER, LIVER, S-9, AROCLOR 1254 (10%), Method: PREINCUBATION): inactive; negative | mutagenic call (Test System: AMES SALMONELLA TYPHIMURIUM, Strain/Indicator: TA98, Metabolic Activation: NONE, Method: PREINCUBATION): inactive; negative | mutagenic call (Test System: AMES SALMONELLA TYPHIMURIUM, Strain/Indicator: TA98, Metabolic Activation: RAT, LIVER, S-9, AROCLOR 1254 (10%), Method: PREINCUBATION): inactive; negative | mutagenic call (Test System: AMES SALMONELLA TYPHIMURIUM, Strain/Indicator: TA100, Metabolic Activation: HAMSTER, LIVER, S-9, AROCLOR 1254 (10%), Method: PREINCUBATION): inactive; negative | mutagenic call (Test System: AMES SALMONELLA TYPHIMURIUM, Strain/Indicator: TA100, Metabolic Activation: NONE, Method: PREINCUBATION): inactive; negative | mutagenic call (Test System: AMES SALMONELLA TYPHIMURIUM, Strain/Indicator: TA100, Metabolic Activation: RAT, LIVER, S-9, AROCLOR 1254 (10%), Method: PREINCUBATION): inactive; negative | mutagenic call (Test System: AMES SALMONELLA TYPHIMURIUM, Strain/Indicator: TA1535, Metabolic Activation: HAMSTER, LIVER, S-9, AROCLOR 1254 (10%), Method: PREINCUBATION): inactive; negative | mutagenic call (Test System: AMES SALMONELLA TYPHIMURIUM, Strain/Indicator: TA1535, Metabolic Activation: NONE, Method: PREINCUBATION): inactive; negative | mutagenic call (Test System: AMES SALMONELLA TYPHIMURIUM, Strain/Indicator: TA1535, Metabolic Activation: RAT, LIVER, S-9, AROCLOR 1254 (10%), Method: PREINCUBATION): inactive; negative | mutagenic call (Test System: AMES SALMONELLA TYPHIMURIUM, Strain/Indicator: TA1537, Metabolic Activation: HAMSTER, LIVER, S-9, AROCLOR 1254 (10%), Method: PREINCUBATION): inactive; negative | mutagenic call (Test System: AMES SALMONELLA TYPHIMURIUM, Strain/Indicator: TA1537, Metabolic Activation: NONE, Method: PREINCUBATION): inactive; negative | mutagenic call (Test System: AMES SALMONELLA TYPHIMURIUM, Strain/Indicator: TA1537, Metabolic Activation: RAT, LIVER, S-9, AROCLOR 1254 (10%), Method: PREINCUBATION): inactive; negative
